# Patent US8133871B2, “Dihydropseudoerythromycin derivatives” (The Kitasato Institute, priority 2005, dated 2012)
# Where two headings read alike, the source gives them in different places.
# Tests used:
# Assay type in all cases: cell-based
# THP-1 cells = experiment: THP-1 differentiation induction-promoting activity; conditions: lowest concentration necessary to show 50% activity relative to the activity value of erythromycin A at 100 μM, PMA 1-2 μM, 72-96 hr; for minimal effective concentration: Homo sapiens, THP-1
# Method: As one index of the anti-inflammatory action of the compound of the present invention, the differentiation induction-promoting activity of THP-1 cell was measured. The measurement was performed as shown below.
# THP-1 cells (ATCC No. TIB-202) were adjusted to a concentration of 2×10^5 cells/ml with a medium (RPMI 1640), PMA was added thereto to a final concentration of 1-2 μM, and the mixture was dispensed to each well of a 96 well plate by 100 μl. A solution (100 μl) containing a test substance was adjusted to an appropriate concentration with the medium and added to each well. The mixture was stirred by gently shaking the plate, and incubated under 37° C., 5% CO2 conditions for 72-96 hr. Each well was washed with PBS, a medium containing the viable cell measurement reagent SF (Nacalai Tesque) was added at 100 μl/well and the mixture was incubated under the conditions of 37° C., 5% CO2 for 3-5 hr. The absorbance was measured with a plate reader.
# In the Table, the activity value is the lowest concentration necessary for the test compound to show a 50% activity value relative to the activity value of erythromycin A at 100 μM in this experiment.
# THP-1 differentiation induction-promoting activity: The lowest concentration necessary for each compound to show 50% activity relative to the activity value of erythromycin A at 100 μM.
# E. aerogen NCTC10006 = experiment: antibacterial activity, MIC (NCCLS method)
# Method: (§1) The antibacterial activity of the compound of the present invention and erythromycin were measured according to the antibacterial sensitivity measurement method of the US National Committee for Clinical Laboratory Standards (NCCLS). The values of minimum inhibitory concentration (MIC) (μg/ml) of each compound against bacteria are shown therein.
# S. aureus FDA209P = experiment: antibacterial activity, MIC (NCCLS method); conditions: Staphylococcus aureus
# Method: as §1
# K. pneumoniae NCTN9632 = experiment: antibacterial activity, MIC (NCCLS method); conditions: Klebsiella pneumoniae
# Method: as §1
# A. calcoaceticus IFO2552 = experiment: antibacterial activity, MIC (NCCLS method); conditions: Acinetobacter calcoaceticus
# Method: as §1
# E. faecalis ATCC21212 = experiment: antibacterial activity, MIC (NCCLS method); conditions: Enterococcus faecalis
# Method: as §1
# M. luteus ATCC9341 = experiment: antibacterial activity, MIC (NCCLS method); conditions: Micrococcus luteus
# Method: as §1
# S. aureus Smith = experiment: antibacterial activity, MIC (NCCLS method); conditions: Staphylococcus aureus
# Method: as §1
# S. aureus 8325 (pEP2104) = experiment: antibacterial activity, MIC (NCCLS method); conditions: Staphylococcus aureus
# Method: as §1
# S. marcescens IFO12648 = experiment: antibacterial activity, MIC (NCCLS method); conditions: Serratia marcescens
# Method: as §1
# E. coli NIHJ JC-2 = experiment: antibacterial activity, MIC (NCCLS method); conditions: Escherichia coli, NIHJJC2
# Method: as §1
# S. epidermidis IFO12648 = experiment: antibacterial activity, MIC (NCCLS method); conditions: Staphylococcus epidermidis
# Method: as §1
# [1] = S. aureus FDA209P 2002.1.31, read-out: MIC
# [2] = K. pneumoniae NCTN9632 2002.1.31, read-out: MIC
# [3] = A. calcoaceticus IFO2552 2002.2.1, read-out: MIC
# [4] = E. faecalis ATCC21212 2002.1.31, read-out: MIC
# [5] = M. luteus ATCC9341 2002.1.31, read-out: MIC
# [6] = S. aureus Smith 2002.1.31, read-out: MIC
# [7] = E. coli NIHJ JC-2 2002.1.31, read-out: MIC
# [8] = S. epidermidis IFO12648 2002.1.31, read-out: MIC
structure (smiles),measurement,setting,value
"CC[C@@H](O)[C@@](C)(O)[C@@H]1OC(=O)[C@H](C)[C@@H](O[C@H]2CC(C)(OC)[C@@H](O)C(C)O2)[C@H](C)[C@@H](O[C@@H]2OC(C)CC(NC)C2O)[C@@]2(C)CC(C)C(O2)[C@@H]1C (some centres unmarked) [EM901, de(3′-N-methyl)-9-dihydro-pseudoerythromycin A 6,9-epoxide]",minimal effective concentration,THP-1 cells,30 µM
same,MIC,E. aerogen NCTC10006,> 128 µg/mL
same,MIC,S. aureus FDA209P; FDA209P,> 128 µg/mL
same,MIC,K. pneumoniae NCTN9632; NCTN9632,> 128 µg/mL
same,MIC,A. calcoaceticus IFO2552; IFO2552,> 128 µg/mL
same,MIC,E. faecalis ATCC21212; ATCC21212,> 128 µg/mL
same,MIC,M. luteus ATCC9341; ATCC9341,> 128 µg/mL
same,MIC,S. aureus Smith,> 128 µg/mL
same,MIC,S. aureus 8325 (pEP2104),> 128 µg/mL
same,MIC,S. marcescens IFO12648; IFO12648,> 128 µg/mL
same,MIC,E. coli NIHJ JC-2,> 128 µg/mL
same,MIC,S. epidermidis IFO12648; IFO12648,> 128 µg/mL
"CC[C@H]1OC(=O)O[C@@]1(C)[C@@H]1OC(=O)[C@H](C)C(=O)[C@H](C)[C@@H](O[C@@H]2OC(C)CC(N(C)Cc3ccc(Cl)cc3)C2O)[C@]2(C)CC(C)C(O2)[C@@H]1C (some centres unmarked) [EM939, de(3′-N-methyl)-3′-N-(p-chlorobenzyl)-de(3-O-cladinosyl)-9-dihydro-3-keto-pseudoerythromycin A 6,9-epoxide 12,13-carbonate]",minimal effective concentration,THP-1 cells,3 µM
same,MIC,"E. aerogen NCTC10006; E. aerogen NCTC10006 2002.2.1, read-out: MIC",> 64 µg/mL
same,MIC,S. aureus FDA209P; [1],> 64 µg/mL
same,MIC,K. pneumoniae NCTN9632; [2],> 64 µg/mL
same,MIC,A. calcoaceticus IFO2552; [3],> 64 µg/mL
same,MIC,E. faecalis ATCC21212; [4],> 64 µg/mL
same,MIC,M. luteus ATCC9341; [5],> 64 µg/mL
same,MIC,S. aureus Smith; [6],> 64 µg/mL
same,MIC,S. aureus 8325 (pEP2104),> 64 µg/mL
same,MIC,"S. marcescens IFO12648; S. marcescens IFO12648 2002.2.1, read-out: MIC",> 64 µg/mL
same,MIC,E. coli NIHJ JC-2; [7],> 64 µg/mL
same,MIC,S. epidermidis IFO12648; [8],> 64 µg/mL
CC[C@H]1OC(=O)[C@H](C)[C@@H](O[C@H]2C[C@@](C)(OC)[C@@H](O)[C@H](C)O2)[C@H](C)[C@@H](O[C@@H]2O[C@H](C)C[C@H](N(C)C)[C@H]2O)[C@](C)(O)C[C@@H](C)C(=O)[C@H](C)[C@@H](O)[C@]1(C)O [erythromycin],MIC,E. aerogen NCTC10006,128 µg/mL
same,MIC,S. aureus FDA209P; [1],≤ 0.5 µg/mL
same,MIC,K. pneumoniae NCTN9632; [2],32 µg/mL
same,MIC,A. calcoaceticus IFO2552; [3],4 µg/mL
same,MIC,E. faecalis ATCC21212; [4],1 µg/mL
same,MIC,M. luteus ATCC9341; [5],≤ 0.5 µg/mL
same,MIC,S. aureus Smith; [6],≤ 0.5 µg/mL
same,MIC,S. aureus 8325 (pEP2104),64 µg/mL
same,MIC,S. marcescens IFO12648; IFO12648,128 µg/mL
same,MIC,E. coli NIHJ JC-2; [7],64 µg/mL
same,MIC,S. epidermidis IFO12648; [8],≤ 0.5 µg/mL
"CC[C@@H](O)[C@@](C)(O)[C@@H]1OC(=O)[C@H](C)[C@@H](O)[C@H](C)[C@@H](O[C@@H]2OC(C)CC(N(C)C)C2O)[C@]2(C)CC(C)C(O2)[C@@H]1C (some centres unmarked) [EM910, de(3-O-cladinosyl)-9-dihydro-pseudoerythromycin A 6,9-epoxide]",minimal effective concentration,THP-1 cells,100 µM
"CC[C@@H](O)[C@@](C)(O)[C@@H]1OC(=O)[C@H](C)C(=O)[C@H](C)[C@H](O[C@@H]2OC(C)CC(N(C)Cc3ccc(Cl)cc3)C2O)[C@]2(C)CC(C)C(O2)[C@@H]1C (some centres unmarked) [EM949, de(3′-N-methyl)-3′-N-(p-chlorobenzyl)-de(3-O-cladinosyl)-9-dihydro-3-keto-pseudoerythromycin A 6,9-epoxide]",minimal effective concentration,THP-1 cells,10 µM
"CC[C@@H](O)[C@@](C)(O)[C@@H]1OC(=O)[C@H](C)[C@@H](O[C@H]2CC(C)(OC)[C@@H](O)C(C)O2)[C@H](C)[C@@H](O[C@@H]2OC(C)CC(N(Cc3ccccc3)Cc3ccccc3)C2O)[C@@]2(C)CC(C)C(O2)[C@@H]1C (some centres unmarked) [EM904, bis-de(3′-N-methyl)-bis-(3′-N-benzyl)-9-dihydro-pseudoerythromycin A 6,9-epoxide]",minimal effective concentration,THP-1 cells,10 µM
"CC[C@H]1OC(=O)O[C@@]1(C)[C@@H]1OC(=O)[C@H](C)C(=O)[C@H](C)[C@@H](O[C@@H]2OC(C)CC(N(C)C)C2OC(C)=O)[C@]2(C)CC(C)C(O2)[C@@H]1C (some centres unmarked) [EM917, 2′-O-acetyl-de(3-O-cladinosyl)-9-dihydro-3-keto-pseudoerythromycin A 6,9-epoxide 12,13-carbonate]",minimal effective concentration,THP-1 cells,30 µM
"CC[C@H]1OC(=O)O[C@@]1(C)[C@@H]1OC(=O)[C@H](C)C(=O)[C@H](C)[C@@H](O[C@@H]2OC(C)CC(N3CCOCC3)C2O)[C@]2(C)CC(C)C(O2)[C@@H]1C (some centres unmarked) [EM935, de(3-O-cladinosyl)-9-dihydro-3-keto-de(3′-dimethylamino)-3′-morpholino-pseudoerythromycin A 6,9-epoxide 12,13-carbonate]",minimal effective concentration,THP-1 cells,30 µM
"CC[C@@H](O)[C@@](C)(O)[C@@H]1OC(=O)[C@H](C)[C@@H](O[C@H]2CC(C)(OC)[C@@H](O)C(C)O2)[C@H](C)[C@@H](O[C@@H]2OC(C)CC(N(C)C)C2O)[C@@]2(C)CC(C)C(O2)[C@@H]1C (some centres unmarked) [EM900, 9-dihydro-pseudoerythromycin A 6,9-epoxide]",minimal effective concentration,THP-1 cells,30 µM
same,MIC,E. aerogen NCTC10006,> 128 µg/mL
same,MIC,S. aureus FDA209P; FDA209P,> 128 µg/mL
same,MIC,K. pneumoniae NCTN9632; NCTN9632,> 128 µg/mL
same,MIC,A. calcoaceticus IFO2552; IFO2552,> 128 µg/mL
same,MIC,E. faecalis ATCC21212; ATCC21212,> 128 µg/mL
same,MIC,M. luteus ATCC9341; [5],128 µg/mL
same,MIC,S. aureus Smith,> 128 µg/mL
same,MIC,S. aureus 8325 (pEP2104),> 128 µg/mL
same,MIC,S. marcescens IFO12648; IFO12648,> 128 µg/mL
same,MIC,E. coli NIHJ JC-2,> 128 µg/mL
same,MIC,S. epidermidis IFO12648; IFO12648,> 128 µg/mL
"CC[C@@H]1O[C@@]1(C)[C@@H]1OC(=O)[C@H](C)[C@@H](O[C@H]2CC(C)(OC)[C@@H](O)C(C)O2)[C@H](C)[C@@H](O[C@@H]2OC(C)CC(N(C)C)C2O)[C@]2(C)CC(C)C(O2)[C@@H]1C (some centres unmarked) [EM909, 12,13-epoxy-9-dihydro-pseudoerythromycin A 6,9-epoxide]",minimal effective concentration,THP-1 cells,30 µM
"CC[C@@H](OC(C)=O)[C@@](C)(O)[C@@H]1OC(=O)[C@H](C)[C@@H](O[C@H]2CC(C)(OC)C(OC(C)=O)C(C)O2)[C@H](C)[C@@H](O[C@@H]2OC(C)CC(N(C)C)C2O)[C@]2(C)CC(C)C(O2)[C@@H]1C (some centres unmarked) [EM911, 4″,13-O-diacetyl-9-dihydro-pseudoerythromycin A 6,9-epoxide]",minimal effective concentration,THP-1 cells,10 µM
"CC[C@H]1OC(=O)O[C@@]1(C)[C@@H]1OC(=O)[C@H](C)C(=O)[C@H](C)[C@@H](O[C@@H]2OC(C)CC(N3CCOCC3)C2OC(C)=O)[C@]2(C)CC(C)C(O2)[C@@H]1C (some centres unmarked) [EM932, 2′-O-acetyl-de(3-O-cladinosyl)-9-dihydro-3-keto-de(3′-dimethylamino)-3′-morpholino-pseudoerythromycin A 6,9-epoxide 12,13-carbonate]",minimal effective concentration,THP-1 cells,10 µM
"CO[C@]1(C)C[C@H](O[C@H]2[C@H](C)[C@@H](O[C@@H]3O[C@H](C)C[C@H](N(C)C)[C@H]3O)[C@@]3(C)C[C@@H](C)[C@H](O3)[C@H](C)[C@H](/C(C)=N/O)OC(=O)[C@@H]2C)O[C@@H](C)[C@@H]1O [EM907, de[12-(1-hydroxypropyl)]-9-dihydro-12-hydroxyoxime-pseudoerythromycin A 6,9-epoxide]",THP-1 differentiation induction-promoting activity,THP-1 cells,30
